Tests used:
[1] = Solubility analysis of berberine in organic solvents (excess compound, 24 h agitation, spectrophotometer); type: physicochemical; conditions: organic solvent or mixture, thermodynamic from solid
Experimental: The solubility study of the compound in different solvents was carried out. Acetone, ethanol, methanol, 1-propanol, 1-butanol, and dichloromethane were used. An excess compound was added to 100 mL of solvent at 25 and 35 °C. The solution was agitated at 100 rpm for 24 h to achieve solid–liquid equilibrium. It was then left for 2 h without stirring to allow the sedimentation of the insolubilized particles. An aliquot was taken and analyzed with a spectrophotometer.

[2] = Particle size by scanning electron microscopy (length and width of 200 particles); type: physicochemical; conditions: SEM, GAS at 35 °C, 80 bar
Experimental: Berberine was micronized using the antisolvent gas technique based on the studies of Pessoa et al. (2019) and Sakata et al. (2021). First, the solution was prepared at 1 mg/mL with the selected solvents and then added to the cell. The CO2 was introduced into the cell at a flow rate of 10 and 20 mL/min until the pressure reached 80 bar, with an operating temperature of 35 °C. The mixture was held at 80 bar for 10 min for homogenization. The solvent was removed by passing CO2 at constant pressure with open inlet and outlet valves. Once all the solvent had been removed, the reaction cell was depressurized, and the particles were collected.
Morphology and particle size were examined by scanning electron microscopy (JEOL JSM-6390LV.). Length and width measurements of 200 particles were obtained for each sample using Size Meter Software (version 1.1).

[3] = listed as Nonmicronized berberine

A solubility at 24 h ([1]; 1-butanol, 25 °C) of 5.4 ± 0.578 µg/mL, a solubility at 24 h ([1]; 1-propanol, 25 °C) of 3 ± 0.168 µg/mL and a solubility at 24 h ([1]; 1-propanol, 35 °C) of 4.33 ± 0.082 µg/mL were found for `COc1ccc2cc3[n+](cc2c1OC)CCc1cc2c(cc1-3)OCO2` [Berberine, Berberine chloride] in this work. The solubility at 24 h ([1]; acetone, 25 °C) was 0.16 ± 0.004 µg/mL, the solubility at 24 h ([1]; acetone, 35 °C) was 0.2 ± 0.007 µg/mL and the solubility at 24 h ([1]; dichloromethane, 25 °C) was 1.27 ± 0.032 µg/mL. The solubility at 24 h ([1]; dichloromethane, 35 °C) was 3.47 ± 0.091 µg/mL, the solubility at 24 h ([1]; ethanol, 25 °C) was 2.82 ± 0.086 µg/mL and the solubility at 24 h ([1]; ethanol, 35 °C) was 4.57 ± 0.254 µg/mL. The solubility at 24 h ([1]; methanol, 25 °C) was 15.4 ± 1.61 µg/mL, the solubility at 24 h ([1]; methanol, 35 °C) was 35 ± 1.98 µg/mL and the “particle size, length” value [2, 3] was 13.24 μm. The “particle size, width” value [2, 3] was 6.39 μm, the “particle size, length” value ([2]; listed as Raw) was 13.24 ± 8.66 μm and the “particle size, width” value ([2]; listed as Raw) was 6.39 ± 5.39 μm.

— PMC12593154, “Overcoming Solubility Challenges: Micronization of Berberine Using the GAS Antisolvent Technique” (ACS Omega, 2025)
